# From patent US6465432B1, “Isolated antioxidant peptides form casein and methods for preparing, isolating, and identifying antioxidant peptides” (Kraft Food Holdings, Inc., priority 2000, dated 2002)
# No end group written: not given here.
# Experiments:
# Type in all cases: biochemical
# [1] = ABTS total antioxidative activity assay (ABTS, metmyoglobin, H2O2; absorbance at 734 nm)
# Experimental: (§1) Phase I fractions of the protein hydrolysates generated with various proteases in Example 1 were analyzed for their ability to prevent accumulation of free radicals derived from 2,2′-azino-bis(3-ethylbenzthiazoline-6-sulfonic acid) (ABTS). Both total antioxidative activity and total reducing power of protein hydrolysate using ABTS and preformed ABTS radical, respectively, were used. These two model systems allowed mechanistic information of antioxidative activity of protein hydrolysates to be obtained. Furthermore, the analysis provided specific data related to whether the protein hydrolysates have the capacity of scavenging radicals in an oxidation system.
# Total antioxidant assays using ABTS were performed according to Cox et al., “Biological assays for cellular transformation,” Methods in Enzymology 238:277 (1994); and Plumb et al., “Are Whole Extracts and Purified Glucosinolates from Cruciferous Vegetables Antioxidants?,” Free Rad. Res. 25:75 (1996). The assay was performed in a total volume of 1.2 ml. Twenty-five microliters of sample (Phase I hydrolysate fractions as described in Example 1 or Trolox standard (2.5 mM) (Aldrich, Milwaukee, Wis.) were combined with 100 μl of ABTS solution (2.5 mM ABTS (Sigma, St. Louis, Mo.) in PBS), 180 μl of MetMb solution (50 μM Metmyoglobin made from mixing 1:1 v/v of 100 µM myoglobin (Sigma, St. Louis, Mo.) and 100 μM Metmyoglobin (Sigma, St. Louis, Mo.); and 100 μM potassium ferricyanide (Aldrich, Milwaukee, Wis.) in PBS), and 775 μl PBS. One-hundred and 20 microliters of 10 mM H2O2 were then added. The mixture was agitated and absorbance was read at 734 nm over a period of 10-15 min.
# [2] = Total reducing power assay using ABTS radical; conditions: for antioxidative activity in the ABTS radical assay: HPLC-isolated fractions of Phase I, concentrations not adjusted after HPLC; for reducing power in terms of scavenging pre-formed ABTS radical: synthesized peptide 0.0832 mM, Trolox 0.0208 mM, n=5
# Experimental: as §1
# Total reducing power assays using ABTS radical were performed according to the methods of Pellegrini et al., “Screening of Dietary Carotenoids and Carotenoid-Rich Fruit Extracts for Antioxidant Activities Applying 2,2 ′-Azinobis(3-ethylenebenzothiazoline-6-sulfonic acid Radical Cation Decolorization Assay,” Methods in Enzymology 299:379 (1999). This assay measures antioxidant capability as reducing power in terms of scavenging pre-formed ABTS radical. Equal volumes of lOmM PBS and sample (Phase I hydrolysate fractions as described in Example 1) were combined and 2.5 times the total volume (i.e., PBS and sample combined) of a working solution of ABTS radical was added. The mixture was agitated and absorbance at 734 nm was measured after 10 minutes of incubation at […]. Acetone or PBS was used as a blank where appropriate. The working solution of ABTS radical was prepared by adding 1 volume of a ABTS radical stock solution to 80 volumes of 10 mM PBS (pH 7.0) and adding, if necessary, PBS or ABTS stock solution to adjust the absorbance to about 0.83 at 734 nm. The ABTS radical stock solution contained 2.5 mM K2S2O8 and 6.9 mM ABTS.
# [3] = Hydroxyl radical (Fenton) assay; conditions: synthesized peptide 0.2083 mM, Trolox 0.0521 mM; n=5; FIG. 22
# Experimental: An analysis was performed to evaluate the ability of the peptide samples (Phase I and II hydrolysate fractions as described in Example 1) to quench the hydroxyl radical. The hydroxyl radical is an exceptionally active agent that reacts nonselectively with all organic constituents of food. Consequently, it can directly initiate lipid oxidation in food systems. The capacity to quench hydroxyl radicals, therefore, should theoretically be a very important characteristics for food antioxidants.
# The hydroxyl radical (Fenton) assay was performed according to the methods of Lee, B. J., et al., “Antioxidant effects of L-carnosine on liposomes and beef homogenates,” J. Food Sci. 62:931 (1997). For this assay, 945 μl buffer (0.1 M phosphate buffer, pH 7.4), 60 μl EDTA-FeCl3 solution (92 mM EDTA, 26 mM FeCI3 in 0.1 M phosphate buffer pH 7.4), 25 μl sample (Phase I and II hydrolysate fractions as described in Example 1 or Trolox standard (2.5 mM)), and 120 μl of 1 mM H2O2 were combined. To this solution, 50 μl of a deoxyribose-ascorbic acid solution (67 mM deoxyribose, 4.8 mM ascorbic acid, in 01 M phosphate buffer pH 7.4) was added, and the solution was mixed and incubateded at 37° C. for 1 hr. […] Absorbance of the solution is then read at 532 nm after cooling to room temperature. […]
# [4] = synthesized peptide 0.0832 mM, Trolox 0.0208 mM, n=5
Molecule,"total antioxidative activity [1, 4]",antioxidative activity in the ABTS radical assay [2],reducing power in terms of scavenging pre-formed ABTS radical [2],also measured
"Cc1c(C)c2c(c(C)c1O)CCC(C)(C(=O)O)O2 (centres unmarked) [Trolox, reference compound]",–,–,–,"total antioxidative activity ([1]; Phase I of milk protein hydrolysates, FIG. 2, PBS negative control, Trolox positive control): typical delay of initiation or lag phase of the oxidation system; time until after which oxidation was virtually totally suppressed ([1]; Trolox 0.0208 mM): > 2 h"
AYFYPE [fragment of alpha S1-casein (amino acid residue 158˜163) from bovine milk],significant (p<0.05) when compared to PBS controls,strong antioxidative activity,strong antioxidative activity,time within which oxidation reached maximal levels ([1]; synthesized peptide 0.0832 mM): ≤ 1.5 h
"Gln-Phe-Tyr [cyclic QFY] (not fully specified (bridges); printed as Gln-Phe-Tyr [cyclic QFY]; also: cyclic, kind not given here) [cyclic tripeptide, fragment of alpha S1-casein (amino acid residues 167-169) from bovine milk]",slightly stronger antioxidative activity,strong antioxidative activity,significantly (p<0.05) scavenged pre-formed ABTS radical,capacity to quench hydroxyl radicals [3]: slightly stronger capacity to quench hydroxyl radicals
Gln-Phe-Tyr [linear QFY],have antioxidative activity,–,significantly (p<0.05) scavenged pre-formed ABTS radical,capacity to quench hydroxyl radicals [3]: possess the capacity to quench hydroxyl radicals
LAYFYPE (Bovine) [Leu-Ala-Tyr-Phe-Tyr-Pro-Glu],–,strong antioxidative activity,–,–
"RYLGYLE (Bovine) [Arg-Tyr-Leu-Gly-Tyr-Leu-Glu, fragment of alpha S1-casein (amino acid residues 105˜111) from bovine milk]",–,strong antioxidative activity,statistically significant when compared to PBS controls,–
YLGYLE [fragment of alpha S1-casein (amino acid residues 106˜111) from bovine milk],–,strong antioxidative activity,–,–
